Here are results for 1 compound from patent US20110098221A1, “INHIBITORS OF Akt ACTIVITY” (priority 2008, published 2011).

This test has as its target T1, full length AKT1 (Homo sapiens, UniProt P31749).
T1 construct: His tag (from vector pFastBacHTb) (N); made in house; host or cells: baculovirus; Sf9 / T. ni insect cells
The test can be described thus: Full-length AKT enzyme assay (substrate phosphorylation, SPA). The class given is biochemical. The note with it: in at least one experimental run; pIC50 = -log(IC50), IC50 in molar units; 4 uM ATP, 10 nM activated enzyme; read-out: pIC50 against full length AKT1 (converted).

T1 sequence (P31749 whole entry): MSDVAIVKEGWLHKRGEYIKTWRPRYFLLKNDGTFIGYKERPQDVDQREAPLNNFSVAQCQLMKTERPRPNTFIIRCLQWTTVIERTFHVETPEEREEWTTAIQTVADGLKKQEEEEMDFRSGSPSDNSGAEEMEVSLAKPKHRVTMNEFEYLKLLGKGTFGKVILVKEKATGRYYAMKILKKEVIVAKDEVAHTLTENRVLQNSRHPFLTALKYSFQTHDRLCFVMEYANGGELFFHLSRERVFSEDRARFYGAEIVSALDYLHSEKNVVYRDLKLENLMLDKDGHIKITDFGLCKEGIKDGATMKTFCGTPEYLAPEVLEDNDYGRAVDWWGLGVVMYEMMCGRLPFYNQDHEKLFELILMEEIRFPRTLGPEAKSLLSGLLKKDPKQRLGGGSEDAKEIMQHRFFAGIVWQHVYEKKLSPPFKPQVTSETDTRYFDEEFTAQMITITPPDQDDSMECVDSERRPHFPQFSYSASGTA

In the case of `Cn1nccc1-c1cnc(C(=O)N[C@H](CN)Cc2cccc(F)c2)s1` [Example 1, N-{(1S)-2-amino-1-[(3-fluorophenyl)methyl]ethyl}-5-(1-methyl-1H-pyrazol-5-yl)-1,3-thiazole-2-carboxamide], the IC50 is 6.31 nM.
